From patent US20240390383A1, “DIOXAZINES AND THEIR USE IN TREATMENT OF GBA-RELATED DISEASES” (ZEVRA DENMARK A/S, priority 2021, published 2024)

Molecular target: T1, GCase (GBA) in human fibroblast cell line GM10915 harboring the L444P GBA mutation (Homo sapiens, UniProt P04062, L483P)
T1 construct: Human fibroblast cell line GM10915 harboring the L444P GBA mutation; host or cells: GM10915 human fibroblasts
T1 sequence (P04062 40-536 L483P): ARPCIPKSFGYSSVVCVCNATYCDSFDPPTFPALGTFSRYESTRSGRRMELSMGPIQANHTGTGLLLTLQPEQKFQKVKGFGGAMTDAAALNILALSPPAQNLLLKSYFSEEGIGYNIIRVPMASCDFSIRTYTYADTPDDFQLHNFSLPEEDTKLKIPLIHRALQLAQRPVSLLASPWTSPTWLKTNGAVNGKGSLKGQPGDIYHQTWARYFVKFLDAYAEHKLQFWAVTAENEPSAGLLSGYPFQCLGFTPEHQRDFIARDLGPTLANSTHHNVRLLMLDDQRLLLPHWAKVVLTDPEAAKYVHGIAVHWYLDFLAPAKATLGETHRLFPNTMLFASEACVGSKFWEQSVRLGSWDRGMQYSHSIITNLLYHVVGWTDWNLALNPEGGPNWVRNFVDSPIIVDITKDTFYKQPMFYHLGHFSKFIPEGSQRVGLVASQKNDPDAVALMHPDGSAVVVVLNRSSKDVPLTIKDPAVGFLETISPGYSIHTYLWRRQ
Test: GCase activity assay (4-MUG substrate, normalised to crystal violet staining) in L444P GBA fibroblasts
Assay type: cell-based
Conditions: 5 days exposure; for GBA EC1.5: concentration giving 150% GCase activity (1.5-fold induction), 8-point dose range; for Emax: maximum percent GCase activity relative to untreated cells in the dose range tested
In short: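 Patient fibroblasts GM10915 (L444P GBA) exposed to compounds for five days over an 8-point range, with fresh dosing every 2–3 days. Intact-cell GCase measured with 2.5 mM 4-MUG at pH 4.0 for 23 h at 37 °C (ex/em 365/445 nm), normalised to crystal violet, as % of PBS basal; Emax is the maximum reached.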

CN(C)C(=O)N1CCCC1C1=NOCC(CN2CCCCC2)O1 (centres unmarked) [compound 694]
GBA EC1.5: 50 µM | Emax: 115%

COC1CNCC(C2=NOCC(CN3CCCCC3)O2)C1 (racemic) [compound 680, rac-3-(5-methoxypiperidin-3-yl)-5-(piperidin-1-ylmethyl)-5,6-dihydro-1,4,2-dioxazine]
GBA EC1.5: 20 µM | Emax: 209%

CN(C)C(=O)[C@@]12CC[C@]1(C1=NOCC(CN3CCCCC3)O1)CNC2 (relative stereo) [compound 765, rac-rel-(1R,5S)—N,N-dimethyl-5-(5-(piperidin-1-ylmethyl)-5,6-dihydro-1,4,2-dioxazin-3-yl)-3-azabicyclo[3.2.0]heptane-1-carboxamide]
GBA EC1.5: 29 µM | Emax: 151%

c1cc2n(n1)CCC(C1=NOCC(CN3CCCCC3)O1)C2 (centres unmarked) [compound 656]
GBA EC1.5: 50 µM | Emax: 123%
